Experimental findings from patent US4505893A, “Purified plasminogen activator, process for its production and thrombolytic composition containing it” (Asahi Kasei Kogyo Kabushiki Kaisha, priority 1982, dated 1985) are described below.

Square brackets hold non-standard residues; d marks the D form. Peptide text beside a SMILES is read from it. * marks the point of attachment. Sta = CC(C)C[C@H](N)[C@@H](O)CC(=O)O; Isovaleryl = CC(C)CC(=O)*

The test system of one assay is fibrin. Description: Affinity to fibrin (incorporation into formed fibrin). The class given is binding. The following applies: 500 U/ml (urokinase 500 IU/ml); plasminogen-free fibrinogen + thrombin, 1 hour at room temperature; extracted with 2M ammonium thiocyanate.
Assay [1] can be described thus: Hydrolysis activity on various organic substrates. The class given is biochemical. The conditions noted are these: 37° C. 15 minutes, 1 μM aminomethylcoumarin = 100%, substance 100 U/ml, urokinase 120 IU/ml.
Another assay deals with plasminogen. The assay can be described thus: Enhancement of activity with fibrin (plasminogen activation, Boc-Val-Leu-Lys-MCA). The format is biochemical. The conditions noted are these: 5 U/ml (urokinase 5 IU/ml), 25° C. 1 hour, 10 μM aminomethylcoumarin = 100%.
Another assay addresses urokinase (Homo sapiens, UniProt P00749). Description: biochemical.
The target of assay [2] is T1, substance of this invention (plasminogen activator) (Homo sapiens, UniProt P00750).
T1 construct: endogenous in cells
Description: biochemical.

T1 sequence (P00750 36-562): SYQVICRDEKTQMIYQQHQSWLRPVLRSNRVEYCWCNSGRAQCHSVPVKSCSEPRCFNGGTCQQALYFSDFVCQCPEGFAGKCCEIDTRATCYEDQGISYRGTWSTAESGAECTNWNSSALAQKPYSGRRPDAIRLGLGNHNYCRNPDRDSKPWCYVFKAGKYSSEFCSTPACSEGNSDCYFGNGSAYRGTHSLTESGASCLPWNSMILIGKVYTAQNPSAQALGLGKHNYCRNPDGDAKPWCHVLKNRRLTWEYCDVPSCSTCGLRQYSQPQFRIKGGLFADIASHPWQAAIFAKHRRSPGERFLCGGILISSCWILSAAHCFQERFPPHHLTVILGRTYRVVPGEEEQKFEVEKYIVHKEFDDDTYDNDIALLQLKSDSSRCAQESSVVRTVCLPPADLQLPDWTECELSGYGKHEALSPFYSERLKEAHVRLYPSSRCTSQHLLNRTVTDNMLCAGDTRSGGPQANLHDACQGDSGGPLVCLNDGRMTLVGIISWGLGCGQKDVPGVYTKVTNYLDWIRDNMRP

On to urokinase, for which the “proportion of the substance incorporated in the fibrin” value with fibrin is given as “not incorporated in the fibrin at all”. The “Hydrolysis Activity (%)” value in assay [1] (substrate Boc-Glu-Lys-Lys-MCA 0.1 mM) turned out to be 2.82%; in assay [1] (substrate Boc-Ileu-Glu-Gly-Arg-MCA 0.1 mM) it was 3.30%; in assay [1] (substrate Boc-Phe-Ser-Arg-MCA 0.1 mM), 48.9%; in assay [1] (substrate Glt-Gly-Arg-MCA 0.1 mM), 314%; in assay [1] (substrate Pro-Phe-Arg-MCA 0.1 mM), 3.89%; in assay [1] (substrate Z--Phe-Arg-MCA 0.1 mM) it was 2.15%. Further, the “Hydrolysis Activity (%)” value in the assay on plasminogen (fibrinogen added) is on record as 5.9%; with plasminogen (fibrinogen not added) it was 28%.

A word on the IC50: it is the concentration that inhibits the measured activity by half. A higher IC50 goes with lower potency. Consider `CC(C)C[C@H](NC(=O)[C@@H](NC(=O)N[C@@H](Cc1ccccc1)C(=O)O)[C@@H]1CCN=C(N)N1)C(=O)N[C@H](C=O)Cc1ccccc1` [Chymostatin], for which the IC50 (against urokinase; in assay [2]) was over 160 µM each time.

As for `CC(C)CC(=O)N[C@H](C(=O)N[C@H](C(=O)N[C@@H](CC(C)C)[C@@H](O)CC(=O)N[C@@H](C)C(=O)N[C@@H](CC(C)C)[C@@H](O)CC(=O)O)C(C)C)C(C)C` [Pepstatin] (Isovaleryl-VV[Sta]A[Sta]-OH), the IC50 (against urokinase; in assay [2]) was over 100 µM throughout.

Regarding `CC(=O)N[C@@H](CC(C)C)C(=O)N[C@@H](CC(C)C)C(=O)N[C@H](C=O)CCCNC(=N)N` [Leupeptin], the figures for the 50% inhibitory concentration (IC50) (at urokinase; in assay [2]) were 80.7 µM and 47.5 µM, respectively.

Take `CCOC(=O)c1ccc(OC(=O)CCCCCNC(=N)N)cc1` [FOY]: the figures for the IC50 (against urokinase; in assay [2]) were 0.146 µM and 12.8 µM, respectively.
